Two compounds from patent US9242939B2, “Compositions and methods for the treatment of respiratory disorders” (CELLIX BIO PRIVATE LIMITED, priority 2012, dated 2016) can be followed below.

Common to all, as to type: in vivo, Wistar-Kyoto (WKY) rats
Data set [1] deals with CCI rats. Briefly: Thermal hyperalgesia in CCI (sciatic nerve ligation) neuropathic pain rats. The following applies: 15 mg/kg DM or 15 mg/kg equivalent of DM, intraperitoneally once daily for a week from day 8 after CCI; examined on day 15 after CCI; compared with corresponding baseline. The protocol:
(§1) Adult male WKY rats weighing 200-250 g. Rats were housed individually in each cage and the experiments started at least three days after their arrival. The surgical procedure was performed under pentobarbital anesthesia (50 mg/kg, intraperitoneally). CCI rats were produced by loosely ligating the common sciatic nerve on one side according to the method. Briefly, the right sciatic nerve was exposed in themid-thigh and separated from the adjacent tissue. Four loose ligatures using 4-0 chromic gut sutures were made around the dissected nerve with a 1.0-1.5 mm interval between each pair of ligatures. The skin wound was closed using stainless steel pins. In sham rats, the same surgical procedure was followed except for nerve ligation. DM and formula I (1-1) were diluted in 10% DMSO. The MDSO (10%) was also used for vehicle control.
(§2) The drugs DM (15 mg/kg for DM) or the formula I (1-1) (15 mg/kg equivalent of DM) was given intraperitoneally once daily for a week, beginning in the second week after CCI (i.e., day 8 after CCI).

Data set [2] relates to CCI rats. In words: Mechanical allodynia in CCI (sciatic nerve ligation) neuropathic pain rats. The following applies: 15 mg/kg DM or 15 mg/kg equivalent of DM, intraperitoneally once daily for a week from day 8 after CCI; examined at end of one-week treatment; compared with corresponding baseline. As for the experimental part:
as §1, §2

Data set [3] deals with CCI rats. In words: Motor deficits or sedation judged by gait and overall appearance. The following applies: 15 mg/kg DM or equivalent, intraperitoneally once daily for a week. The protocol: as §2

Turning to `CN1CC[C@@]23CCCC[C@@H]2[C@@H]1Cc1ccc(OC(=O)CCCCCC[C@]2(C)CCSS2)cc13` [formula I (1-1)], the reducing thermal hyperalgesia result in the data set with CCI rats [1] is recorded as “reduced thermal hyperalgesia”. The reducing mechanical allodynia result in the data set with CCI rats [2] is reported as “significantly improved mechanical allodynia”. The “motor deficits or sedation” value with CCI rats [3] was “no motor deficits or sedation”.
Consider `COc1ccc2c(c1)[C@]13CCCC[C@@H]1[C@H](C2)N(C)CC3` [DM, Dextromethorphan], for which the reducing thermal hyperalgesia entry with CCI rats [1] is “only marginally effective”. For the same compound, in the data set with CCI rats [2], the reducing mechanical allodynia entry is listed as “effective only in reducing mechanical allodynia”. The “motor deficits or sedation” value with CCI rats [3] is “no motor deficits or sedation”.
